Measurements from patent US20070078097A1, “Method for treating intermittent claudication comprising the administration of propionyl L-carnitine and a concomitant physical training” (priority 2005, published 2007).

Legend:
[1] = system: patients with Intermittent Claudication (Leriche-Fontaine Class II); assay: Maximum walking distance on treadmill, three phase III placebo-controlled studies; format: in vivo, human; details: for MWD at Month 6/Endpoint, Mean / MWD at Month 6/Endpoint, Median: PLC 2 g/day oral, 3 km/h; for MWD Change from Baseline to Endpoint, Mean / MWD Change from Baseline to Endpoint, Median: PLC 2 g/day
Source text: (§1) Three parallel, randomized, double-blind, placebo-controlled, phase III studies in patients with Intermittent Claudication (Leriche-Fontaine Class II) represent the basis for the above considerations. They are study ST 261 201 90 INT (hereinafter referred to as the European study); study ST 94 301 (hereinafter referred to as the Hiatt study); and ST 93 301, hereinafter referred to as the Porter study).
(§2) Diagnosis and main criteria for inclusion for these studies were similar, as follows: intermittent claudication of ascertained vascular origin; age between 40 and 80 years; lesions at iliac-femoral and/or femoro-popliteal level confirmed by angiographic or Doppler examination; no pain at rest (Leriche-Fontaine Class III) or ulcerative lesions (Leriche-Fontaine Class IV); history of claudication >1 year; dietary regime and alcohol intake stable during the study. All patients were strongly encouraged to stop smoking and exercise actively. The latter recommendation was to be achieved either through a supervised, vascular rehabilitation-based program, or via an unsupervised, home-based program.
A total of 316 subjects (PLC, 153 subjects; placebo, 163 subjects) were randomized in the primary intention-to-treat population (ITT) of the European study, which was conducted in 39 centers in West and East Europe, and tested PLC (2 g/day) for 12 months vs. placebo. Patients had to have a maximum walking distance (MWD) at baseline between 50-400 m. and variability over the three treadmill tests carried-out at baseline of ≦25%.
A total of 161 subjects (PLC, 85 subjects; placebo, 76 subjects) were randomized in the ITT population of the Hiatt study, which was performed in 10 centers in the USA and Russia, and tested PLC (2 g/day for 6 months) versus placebo.
A total of 155 subjects (ITT population: PLC, 80 subjects; placebo, 75 subjects) were randomized in the 6-month, Porter study, which was conducted in 16 US centers and tested PLC 2 g/day vs. placebo as its primary target population. All randomized patients had baseline MWD between 50-250 m and variability ≦25%.
These phase III studies evaluated physical performance as their primary efficacy parameter. This was assessed by the maximum walking capacity of patients on a treadmill: the European study used a fixed treadmill with 7% slope and 3 km/hour speed; the Hiatt study used a graded treadmill, starting at 0% slope and increasing by 2% every 2 minutes, with a 2 mph speed; the Porter study used a fixed treadmill with 12% slope and 2 mph speed.
Given the non-normality of response distributions for MWD, the comparison between PLC and placebo-treated patients was based on a non-parametric test, i.e., the Cochrane-Mantel-Haenszel test on the within-center, standardized mid-ranks (MODRIDITS) of changes over baseline, stratified by site.

[2] = system: patients with Intermittent Claudication (Leriche-Fontaine Class II); assay: Quality of life questionnaires (PAD-related, SF-36, WIQ), O'Brien global score; format: in vivo, human
Source text: as §1, §2
The above studies also assessed quality of life (QoL) as their main secondary efficacy parameter: the European study used the ad-hoc validated PAD-related questionnaire, while the Hiatt and Porter studies used both the very well-known and validated Health Status Survey-Short Form 36 (SF-36) and the Walking Impairment Questionnaire (WIQ).
Similar results were obtained also when considering QoL. Since several questionnaires were used in each study, a global summary statistic was used in order to deal with this issue, as well as with the multiplicity of domains present in each of these questionnaires, i.e., the O'Brien test.

[3] = system: patients with claudication; details: orally given; randomised placebo-controlled trials of the literature; cited from earlier work
platelet = details: literature (Pignatelli et al. 2003); cited from earlier work
claudicant patients = details: six patients; intravenous 3 g bolus followed by infusion of 2 mg/Kg/man for 30 minutes; Brevetti et al. 1988; cited from earlier work
[4] = ITT with concomitant physical exercise, N = 54, P-value vs placebo 0.000
[5] = ITT without concomitant physical exercise, N = 264, P-value vs placebo 0.777
[6] = ITT with concomitant physical exercise, PLC N = 54, P-value vs placebo <0.001
[7] = ITT without concomitant physical exercise, PLC N = 261, P-value vs placebo 0.142

Structure (SMILES)	MWD at Month 6/Endpoint, Mean ([1]; ITT with concomitant physical exercise, N = 54, converted to treadmill 7% slope, baseline mean 249.7)	MWD at Month 6/Endpoint, Median ([1]; ITT with concomitant physical exercise, N = 54, treadmill 7% slope, baseline median 239.2)	MWD Change from Baseline to Endpoint, Mean [1, 4]	MWD Change from Baseline to Endpoint, Median [1, 4]	MWD at Month 6/Endpoint, Mean ([1]; ITT without concomitant physical exercise, N = 264, treadmill 7% slope, baseline mean 205.6)	MWD at Month 6/Endpoint, Median ([1]; ITT without concomitant physical exercise, N = 264, treadmill 7% slope, baseline median 171.7)	MWD Change from Baseline to Endpoint, Mean [1, 5]	MWD Change from Baseline to Endpoint, Median [1, 5]	net PLC advantage over placebo in exercise performance at endpoint ([1]; overall ITT subjects of the three studies, p=0.08)	Change in O'Brien scores for QoL questionnaires, Baseline to Endpoint, Mean [2, 6]	Change in O'Brien scores for QoL questionnaires, Baseline to Endpoint, Median [2, 6]	Change in O'Brien scores for QoL questionnaires, Baseline to Endpoint, Mean [2, 7]	Change in O'Brien scores for QoL questionnaires, Baseline to Endpoint, Median [2, 7]	QoL at endpoint compared to the placebo group ([2]; overall ITT subjects, p<0.001)	walking distance in patients with claudication [3]	arachidonic acid accumulation in the phospholipids of platelet membrane (platelet)	platelet thromboxane A2 and O2 formation (platelet)	increase of venous lactate induced by walking test (claudicant patients)
CCC(=O)O[C@H](CC(=O)[O-])C[N+](C)(C)C [PLC, propionyl L-carnitine]	410.8 m	400.9 m	161.1 m	154.8 m	325.3 m	225.5 m	119.7 m	36.6 m	18.2 m	0.56	0.54	0.51	0.50	significant improvement	significant increase	inhibits	reduction	
C[N+](C)(C)C[C@H](O)CC(=O)[O-] [levocarnitine, L-carnitine]															significant increase			lowered
